Test results: US10174015B2, “Substituted heterocyclic derivative, preparation method and use thereof” (Xiamen University, priority 2014, dated 2019)
Read-outs that look alike come from different tables or passages of the source. Marks after values point to notes of the source that are not given here.

Assays:
[1] = tested on: adjuvant-induced arthritis rat models; test: Adjuvant-induced osteoarthritis pain, foot swelling degree; type: in vivo, rats; conditions: X ± S, n = 10, 10 mg/Kg
Method: Typical model for studying inflammatory pain medically was used to evaluate the therapeutic effects of compounds on inflammatory pain. 0.1 mL Freund's complete adjuvant was intradermally injected to toe of the left hind foot of the rats in each group to obtain adjuvant-induced arthritis rat models. Foot volume method was used to measure primary and secondary foot swelling degree (swelling degree=volume after inflammation−volume before inflammation), and polyarticular arthritis were scored (5 scoring grades: 0 represents no red swelling; 4 represents red swelling at all the paws including anklebone. The scores are accumulated according to the lesion degree of the rest three limbs not injected with adjuvant, and the highest score is 12). Before inflammation and at 6 h, 12 h, 18 h and 24 h after inflammation, Paw Volume Meter was used to measure the foot volume at the inflammatory side, and the swelling degree was calculated. The model can represent inflammatory pain including, but not only limited to: osteoarthritis pain and fibromyalgia syndrome, inflammatory pain of rheumatic and rheumatoid arthritis, inflammatory pain of endometriosis, inflammatory toothache, ankylosing spondylitis pain, and gouty arthritis pain.

SNI neuropathic pain = test: Neuropathic pain mouse model induced by spared nerve injury (SNI); type: in vivo, C57BL/6 mice; conditions: SNI mice, 10 mg/kg i.p. (gabapentin 100 mg/kg), 4 h after administration
Method: In the Experimental example, compounds to be evaluated or compounds to be tested or test compounds used are the Compounds 1-46 prepared in the Examples according to the invention. In the Experimental example, all the agents for injection, including compounds to be evaluated or compounds to be tested or test compounds, and positive control drug, were dissolved in a mixed solvent of PEG400:Tween 80:normal saline (at a volume ratio of 5:5:90), at a concentration of 5 mg/mL.
Neuropathic pain mouse model induced by spared nerve injury (SNI) is a common animal model for studying neuropathic pain medically. The invention uses the model to evaluate the therapeutic effects of the compounds on neuropathic pain, wherein the model can represent peripheral neuropathic pain including, but not limited to post-herpetic neuralgia, pain caused by diabetic perineuropathy, neurothlipsis and exudation caused by tumor, lumbar surgery failure syndrome, neuropathic pain caused by lumbar disc protrusion, postpartum neuralgia, trigeminal neuralgia, chemotherapy-induced multiple neuropathic pain, post-radiotherapy plexopathy, and radicular neuralgia.
C57BL/6 mice (purchased from Shanghai SLAC Laboratory Animal Co., Ltd) were anesthetized by intraperitoneal injection with pentobarbital sodium (40 mg/kg), and skin from knee joint to gluteal region was subjected to skin preparation and disinfection. After the mice were fixed, the knee joint part was cut about 1 cm longitudinally with bistoury, and muscle tissues were separated by blunt dissection to expose sciatic nerve. The tibial and common peroneal nerve branches of sciatic nerve stem were cut off carefully, and the cut was then stitched up. The mice was placed in a clean observation cage. In the sham-operation group, only sciatic nerve was exposed without cutting the tibial and common peroneal nerve branches. From the day before the experiment to 24 h after the operation, the plantar edges of the mice were stimulated everyday by […] (Ugo Basile Company (Italy), Product ID: 37450), and data was collected automatically to obtain the threshold value of mice to mechanical stimulation. […] The positive control drug gabapentin was administered at a dose of 100 mg/kg. All the agents to be injected were dissolved in a mixed solvent of PEG400:Tween 80:normal saline (at a volume ratio of 5:5:90), at a concentration of 5 mg/mL. By comparing the threshold values (the acting force of when the mouse retracting the paw) at different administration time in different administration groups, the compound was evaluated for its analgesic effect on neuropathic pain.

zebrafish embryos [2] = type: in vivo; conditions: for Death number (72 h): n = 30; for Body length (72 h) / Hatching number (72 h) / Heartbeat (72 h) / Unhatching number (72 h) / hatching rate: zebrafish, in vivo
Method: By the same method described above, zebrafish fertilized eggs were cultured. 7 Groups were set for each test compound, including 5 experimental groups relating to the test compound at different concentrations (solutions containing the test compound at different concentrations were prepared by using zebrafish embryo culture medium, wherein the concentrations were 100 mg/L, 10 mg/L, 1 mg/L, 0.1 mg/L, 0.01 mg/L), 1 solvent control group (DMSO) and 1 blank control group. The fertilized eggs were placed and cultured in a 28.5° C. incubator, a certain humidity was ensured in the culture environment. Culture medium containing a test compound was prepared, and the culture medium was added to a 96-well plate in advance, and each fertilized egg (by reference to the experimental method in OECD No. 212 document, fertilized eggs, which developed normally within 24 h after fertilization, were selected and subjected to exposure. Transparent fish eggs visible to naked eye were normally fertilized, while white fish eggs were dead and discarded. After the selection, the normally fertilized eggs had begun to divide as observed under microscope) was then independently placed in a different well, and cultured in the culture medium containing a test compound at a different concentration. Embryo development status at different stages were observed and photographed with invert microscope, including:
I. Morphological observation: the developmental states of fertilized eggs (yolk being coagulated or not, eye spot, pericardial sac being edematous or not, bloodstream being existing or not, tail development status, and the like) were observed and photographed at 48 h, 72 h, and 96 h;
II. Hatching number and death number were counted at 72 h after fertilization, and hatching rate and mortality were calculated;
III. Body length of the hatched young fishes at 72 h was measured (measured after photographing with invert microscope); […]
(§1) V. Heartbeat of young fishes (times/min) was recorded at 72 h and 96 h after fertilization (Recording method: heartbeat of young fishes could be clearly observed under microscope, and the number of heartbeats was recorded for 30 s).

zebrafish embryos [3] = type: in vivo; conditions: for Death number (72 h) / Hatching number (72 h) / Unhatching number (72 h): n = 30
Method: Fertilized eggs (donated by Zebrafish Research Group, School of Life Sciences, Xiamen University) were incubated in freshly prepared zebrafish embryo culture medium, which was replaced by fresh culture medium every day, and cultured in 28.5° C. incubator. Pure water was placed in the incubator to ensure a certain humidity in the culture environment. The formulation for zebrafish embryo culture medium was following: 5 mM NaCl, 0.17 mM KCl, 0.33 mM CaCl2, 0.33 mM MgSO4, 10-5% methylene blue. The culture medium was prepared with pure water. For example, NaCl: 292.2 mg, KCl: 12.68 mg, CaCl2: 36.63 mg, MgSO4: 39.72 mg, and methylene blue: 0.1 μL were needed for the preparation of 1 L culture medium.
7 Groups were set for each test compound, including 5 experimental groups relating to the test compound at different concentrations (solutions containing the test compound at different concentrations were prepared by using zebrafish embryo culture medium, wherein the concentrations were 10 mg/L, 3 mg/L, 1 mg/L, 0.3 mg/L, 0.1 mg/L), 1 solvent control group (DMSO) and 1 blank control group. The positive control drug was OTC analgesic ibuprofen at concentrations as described above. A 96-well cell culture plate was used to perform the experiment, three wells in parallel were used for each experimental group, and 10 fish eggs were contained in each well.
Culture medium containing a test compound was prepared, and the culture medium was added to a 96-well plate in advance, and each fertilized egg (by reference to the experimental method in OECD No. 212 document, fertilized eggs, which developed normally within 2 h after fertilization, were selected and subjected to exposure. Transparent fish eggs visible to naked eye were normally fertilized, while white fish eggs were dead and discarded. After the selection, the normally fertilized eggs had begun to divide as observed under microscope) was then independently placed in a different well, and cultured in the culture medium containing a test compound at a different concentration. Embryo development status at different stages was observed and photographed with invert microscope, including: […]
II. Hatching number and death number were counted at 72 h after fertilization, and hatching rate and mortality were calculated; […]
as §1

## O=C(Cc1cccc(-c2ccccc2)c1)N1CCOC1=O [Compound 14, 3-Biphenylacetyl Oxazolidinone]
[1]; 6 h
  Foot swelling degree after inflammation: 0.75 ± 0.11^c mL
[1]; 12 h
  Foot swelling degree after inflammation: 1.06 ± 0.19^c mL
[1]; 18 h
  Foot swelling degree after inflammation: 1.43 ± 0.25^b mL
[1]; 24 h
  Foot swelling degree after inflammation: 1.36 ± 0.18^b mL

## NCC1(CC(=O)O)CCCCC1 [gabapentin, reference compound]
SNI neuropathic pain
  effect of inhibiting central neuropathic pain: disappeared gradually

## CC(C)Cc1ccc(C(C)C(=O)O)cc1 (centres unmarked) [ibuprofen, reference compound]
Zebrafish embryos [2]; 0.01 mg/L
  Death number (72 h): 0
Zebrafish embryos [2]; 0.1 mg/L
  Death number (72 h): 0
Zebrafish embryos [2]; 1 mg/L
  Death number (72 h): 2
Zebrafish embryos [2]; 10 mg/L, 72 h
  mortality: 100%
Zebrafish embryos [2]; 10 mg/L
  Death number (72 h): 30
Zebrafish embryos [2]; 100 mg/L, 48 h
  observation of zebrafish embryo development: all the zebrafish embryos died
Zebrafish embryos [2]; 100 mg/L
  Death number (72 h): 30
Zebrafish embryos [2]; 72 h, 0.01 mg/L
  Body length (72 h): 3.97 ± 0.06 mm
  Hatching number (72 h): 25
  Heartbeat (72 h): 125 ± 2.16 per min
  Unhatching number (72 h): 5
Zebrafish embryos [2]; 72 h, 0.1 mg/L
  Body length (72 h): 3.88 ± 0.15 mm
  Hatching number (72 h): 22
  Heartbeat (72 h): 124 ± 2.25 per min
  Unhatching number (72 h): 8
Zebrafish embryos [2]; 72 h, 1 mg/L
  Body length (72 h): 3.97 ± 0.08 mm
  Hatching number (72 h): 17
  Heartbeat (72 h): 124 ± 1.67 per min
  Unhatching number (72 h): 11
  hatching rate: 56.7%
Zebrafish embryos [2]; 72 h, 10 mg/L
  Hatching number (72 h): 0
  Unhatching number (72 h): 0
  hatching rate: 0%
Zebrafish embryos [2]; 72 h, 100 mg/L
  Hatching number (72 h): 0
  Unhatching number (72 h): 0
Zebrafish embryos [3]; 0.1 mg/L
  Body length (72 h): 3.94 ± 0.14 mm
  Heartbeat (72 h): 125 ± 2.40 per min
  Death number (72 h): 8
  Hatching number (72 h): 22
  Unhatching number (72 h): 0
Zebrafish embryos [3]; 0.3 mg/L
  Body length (72 h): 3.95 ± 0.09 mm
  Heartbeat (72 h): 125 ± 2.48 per min
  Death number (72 h): 8
  Hatching number (72 h): 20
  Unhatching number (72 h): 2
Zebrafish embryos [3]; 1 mg/L
  Body length (72 h): 3.77 ± 0.18 mm
  Heartbeat (72 h): 126 ± 2.56 per min
  Death number (72 h): 13
  Hatching number (72 h): 17
  Unhatching number (72 h): 0
Zebrafish embryos [3]; 1 mg/L, 72 h
  hatching rate: 56.67%
Zebrafish embryos [3]; 3 mg/L
  Death number (72 h): 28
  Hatching number (72 h): 0
  Unhatching number (72 h): 2
Zebrafish embryos [3]; 10 mg/L
  Death number (72 h): 30
  Hatching number (72 h): 0
  Unhatching number (72 h): 0

## COc1ccc2c(c1)c(CC(=O)O)c(C)n2C(=O)c1ccc(Cl)cc1 [indometacin, reference compound]
[1]; 6 h
  Foot swelling degree after inflammation: 0.57 ± 0.16^c mL
[1]; 12 h
  Foot swelling degree after inflammation: 0.96 ± 0.21^c mL
[1]; 18 h
  Foot swelling degree after inflammation: 1.32 ± 0.22^b mL
[1]; 24 h
  Foot swelling degree after inflammation: 1.08 ± 0.26^c mL
